Marks after values point to notes of the source that are not given here.
Legend:
CYP2C9/19 = conditions: cited from earlier work
Experimental: (§1) The inhibitors used were α-NFV, 8-MPS, KET, SFZ, QND, and DDC for CYP1A/2 A, CYP2A, CYP3A, CYP2C, CYP2D, and CYP2E1, respectively. […] All incubations were performed in triplicate.

CYP2A = experiment: Incubation with inhibitors: CM-hydroxylation in porcine hepatic microsomes; format: in vitro ADME, conventional pig
Experimental: as §1

CYP2C = conditions: TB 200 µM; inhibitors SFZ 0.5, α-NFV 0.1 (1 µM), QND 0.1, KET 0.3, DDC 20, 8-MPS 1 µM; mean (SD) of 3
Experimental: To assess the selectivity of the probes, incubation with human specific CYP450 inhibitors was performed. […] All incubations were performed in triplicate. Fourth, typical inhibitors for each of the reactions were included at previously reported Ki values[43],[64].

CYP2E = experiment: Incubation with inhibitors: CZ-hydroxylation in porcine hepatic microsomes; format: in vitro ADME, conventional pig
Experimental: as §1

CYP3A = experiment: Incubation with inhibitors: MDZ-hydroxylation in porcine hepatic microsomes; format: in vitro ADME, conventional pig; conditions: MDZ 20 µM; inhibitors SFZ 0.5, α-NFV 0.1 (1 µM), QND 0.1, KET 0.3, DDC 20, 8-MPS 1 µM; mean (SD) of 3
Experimental: as §1

CYP2D = target: T1, CYP2D (Sus scrofa, UniProt O46658); experiment: Incubation with inhibitors: DXM-O-demethylation in porcine hepatic microsomes; format: in vitro ADME, conventional pig; conditions: DXM 10 µM; inhibitors SFZ 0.5, α-NFV 0.1 (1 µM), QND 0.1, KET 0.3, DDC 20, 8-MPS 1 µM; mean (SD) of 3
T1 construct: from tissue; host or cells: pig liver microsomes
T1 sequence (O46658 1-500): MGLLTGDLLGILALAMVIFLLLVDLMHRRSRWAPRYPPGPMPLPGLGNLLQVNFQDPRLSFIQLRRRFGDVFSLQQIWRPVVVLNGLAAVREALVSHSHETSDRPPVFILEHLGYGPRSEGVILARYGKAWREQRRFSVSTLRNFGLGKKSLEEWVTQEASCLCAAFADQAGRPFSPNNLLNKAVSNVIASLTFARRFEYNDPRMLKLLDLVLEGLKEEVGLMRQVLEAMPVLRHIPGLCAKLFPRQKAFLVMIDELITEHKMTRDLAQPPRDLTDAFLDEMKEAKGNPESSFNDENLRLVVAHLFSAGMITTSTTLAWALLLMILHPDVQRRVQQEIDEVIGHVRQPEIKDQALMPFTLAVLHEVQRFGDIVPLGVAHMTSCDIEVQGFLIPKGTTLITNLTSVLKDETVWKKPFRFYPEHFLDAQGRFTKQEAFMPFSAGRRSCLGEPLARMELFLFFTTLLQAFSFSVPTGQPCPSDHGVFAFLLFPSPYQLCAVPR
Experimental: as §1

CYP1A [1] = experiment: Incubation with inhibitors: PH-O-deethylation in porcine hepatic microsomes; format: in vitro ADME, conventional pig
Experimental: as §1

[2] = system: hepatic CYP450 abundancies; experiment: Pearson correlation between hepatic CYP450 abundancies and probe activities
[3] = system: porcine intestinal CYP450 enzymes; experiment: in vitro; conditions: pig
Experimental: (§2) Intestinal microsomes were incubated as described above for hepatic microsomes. […] Each activity measurement (hepatic and intestinal) was performed in triplicate and data are present [...

porcine CYP450 = conditions: outcome of general decision tree, Figure 4
CYP1A [4] = conditions: n = 8
Experimental: (§3) The incubation times were derived from linearity experiments. […] Protein concentrations and time were chosen at the lowest possible value to allow reliable quantification, within the linear range of the biotransformation reaction.
(§4) The activity data were fitted against the standard Michaelis-Menten equation (Eq. (1a), first term). For each profile, Eadie-Hofstee plots were derived to investigate involvement of more than one enzyme or deviation from normal Michaelis-Menten behaviour. If the Eadie-Hofstee plot was hyperbolic, the data was fitted against the Hill equation[60]. Km, Vmax and/or Hill coefficients were derived for each substrate and pig, in order to obtain the inter-individual variation.
(§5) Stepwise linear regression, correlation analyses, and independent sample t-tests were performed with the SPSS® 24 software (IBM, New York, USA). Sex differences in hepatic protein abundances, Km, and Vmax values, were analyzed by an independent sample t-test. Normality was checked using the Shapiro Wilk test. If the Shapiro Wilk test statistic was significant, log transformation was used to calculate the t-statistic. Equality of variances was checked using the Levene’s test for equality of variances. The appropriate test statistic was used depending on the equality of variances.

CYP1A [5] = conditions: n = 8; remark: listed apart in the source
Experimental: as §3, §4, §5

[6] = system: porcine intestinal CYP450 enzymes; conditions: duodenum, jejunum, ileum
Experimental: as §2

Nc1ccc(S(=O)(=O)Nc2ccnn2-c2ccccc2)cc1 [SFZ, sulphaphenazole]
Ki (CYP2C9/19): 120 to 700 nM

O=c1cc(-c2ccccc2)oc2c1ccc1ccccc12 [α-naphthoflavone]
Ratio of residual activity (substrate + inhibitor versus substrate only), CYP2A CM (CYP2A; CM 1 µM, inhibitors SFZ 0.5, α-NFV 0.1 (1 µM), QND 0.1, KET 0.3, DDC 20, 8-MPS 1 µM, mean (SD) of 3): 0.94 (0.131)
inhibition at 1 µM (CYP2A; pig, porcine hepatic microsomes, probe coumarin 1 µM (CM-hydroxylation), inhibitor 1 µM, read-out: Maximal inhibition of other reactions (CM)): 4%
Inhibition of CM-hydroxylation by inhibitor (CYP2A; porcine hepatic microsomes): 5%
Ratio of residual activity (substrate + inhibitor versus substrate only), CYP2C TB (CYP2C): 1.13 (0.099)
Ratio of residual activity (substrate + inhibitor versus substrate only), CYP2E CZ (CYP2E; CZ 50 µM, inhibitors SFZ 0.5, α-NFV 0.1 (1 µM), QND 0.1, KET 0.3, DDC 20, 8-MPS 1 µM, mean (SD) of 3): 1.06 (0.057)
Inhibition of CZ-hydroxylation by inhibitor (CYP2E; porcine hepatic microsomes): did not inhibit
Ratio of residual activity (substrate + inhibitor versus substrate only), CYP3A MDZ (CYP3A): 1.08 (0.048)
Ratio of residual activity (substrate + inhibitor versus substrate only), CYP2D DXM (CYP2D): 1.02 (0.143)
Ratio of residual activity (substrate + inhibitor versus substrate only), CYP1A PH (CYP1A [1]; PH 20 µM, inhibitors SFZ 0.5, α-NFV 0.1 (1 µM), QND 0.1, KET 0.3, DDC 20, 8-MPS 1 µM, mean (SD) of 3): 0.76 (0.011)
PH-O-deethylation (CYP1A2) activity, % of the control value (CYP1A [1]; inhibitor increased to 1 µM): 76%
inhibition at 0.1 µM (CYP1A [1]; pig, probe phenacetin 20 µM (PH-O-deethylation), porcine hepatic microsomes, read-out: Inhibition of PH-O-deethylation by inhibitor): 24%

CCOc1ccc(NC(C)=O)cc1 [PH, Phenacetin]
Pearson's correlation coefficient, PH activity vs hepatic CYP3A46 abundance ([2]; level 6 (PH 200 µM)): 0.51
Km at 10 min ([3]; duodenal microsomes): 144 µM
Km at 10 min ([3]; ileal microsomes): 189 µM
Km at 10 min ([3]; jejunal microsomes): 182 µM

COc1ccc2c(c1)[C@]13CCCC[C@@H]1[C@H](C2)N(C)CC3 [DXM, Dextromethorphan]
Enzyme involvement: High affinity (porcine CYP450): CYP2D25
Enzyme involvement: Low affinity (porcine CYP450): CYP3A
Pearson's correlation coefficient, DXM activity vs hepatic CYP2C33 abundance ([2]; level 1 (DXM 0.10 µM)): 0.59
Pearson's correlation coefficient, DXM activity vs hepatic CYP2E1 abundance ([2]; level 1 (DXM 0.10 µM)): 0.55
Pearson's correlation coefficient, DXM activity vs hepatic CYP3A46 abundance ([2]; level 1 (DXM 0.10 µM)): 0.59
Pearson's correlation coefficient, DXM activity vs hepatic CYP2C33 abundance ([2]; level 2 (DXM 0.50 µM)): 0.65*
Pearson's correlation coefficient, DXM activity vs hepatic CYP2D25 abundance ([2]; level 2 (DXM 0.50 µM)): 0.55
Pearson's correlation coefficient, DXM activity vs hepatic CYP2E1 abundance ([2]; level 2 (DXM 0.50 µM)): 0.57
Pearson's correlation coefficient, DXM activity vs hepatic CYP3A29 abundance ([2]; level 2 (DXM 0.50 µM)): 0.52
Pearson's correlation coefficient, DXM activity vs hepatic CYP3A46 abundance ([2]; level 2 (DXM 0.50 µM)): 0.65*
Pearson's correlation coefficient, DXM activity vs hepatic CYP1A2 abundance ([2]; level 3 (DXM 1.00 µM)): 0.54
Pearson's correlation coefficient, DXM activity vs hepatic CYP2C33 abundance ([2]; level 3 (DXM 1.00 µM)): 0.65*
Pearson's correlation coefficient, DXM activity vs hepatic CYP2D25 abundance ([2]; level 3 (DXM 1.00 µM)): 0.57
Pearson's correlation coefficient, DXM activity vs hepatic CYP2E1 abundance ([2]; level 3 (DXM 1.00 µM)): 0.60
Pearson's correlation coefficient, DXM activity vs hepatic CYP3A29 abundance ([2]; level 3 (DXM 1.00 µM)): 0.56
Pearson's correlation coefficient, DXM activity vs hepatic CYP3A46 abundance ([2]; level 3 (DXM 1.00 µM)): 0.73*
Pearson's correlation coefficient, DXM activity vs hepatic CYP1A2 abundance ([2]; level 4 (DXM 5.00 µM)): 0.56
Pearson's correlation coefficient, DXM activity vs hepatic CYP2C33 abundance ([2]; level 4 (DXM 5.00 µM)): 0.70*
Pearson's correlation coefficient, DXM activity vs hepatic CYP2D25 abundance ([2]; level 4 (DXM 5.00 µM)): 0.63*
Pearson's correlation coefficient, DXM activity vs hepatic CYP2E1 abundance ([2]; level 4 (DXM 5.00 µM)): 0.56
Pearson's correlation coefficient, DXM activity vs hepatic CYP3A29 abundance ([2]; level 4 (DXM 5.00 µM)): 0.58
Pearson's correlation coefficient, DXM activity vs hepatic CYP3A46 abundance ([2]; level 4 (DXM 5.00 µM)): 0.78*
Pearson's correlation coefficient, DXM activity vs hepatic CYP1A2 abundance ([2]; level 5 (DXM 20.0 µM)): 0.55
Pearson's correlation coefficient, DXM activity vs hepatic CYP2C33 abundance ([2]; level 5 (DXM 20.0 µM)): 0.70*
Pearson's correlation coefficient, DXM activity vs hepatic CYP2D25 abundance ([2]; level 5 (DXM 20.0 µM)): 0.63*
Pearson's correlation coefficient, DXM activity vs hepatic CYP2E1 abundance ([2]; level 5 (DXM 20.0 µM)): 0.52
Pearson's correlation coefficient, DXM activity vs hepatic CYP3A29 abundance ([2]; level 5 (DXM 20.0 µM)): 0.58
Pearson's correlation coefficient, DXM activity vs hepatic CYP3A46 abundance ([2]; level 5 (DXM 20.0 µM)): 0.75*
Pearson's correlation coefficient, DXM activity vs hepatic CYP1A2 abundance ([2]; level 6 (DXM 100 µM)): 0.54
Pearson's correlation coefficient, DXM activity vs hepatic CYP2C33 abundance ([2]; level 6 (DXM 100 µM)): 0.67*
Pearson's correlation coefficient, DXM activity vs hepatic CYP2D25 abundance ([2]; level 6 (DXM 100 µM)): 0.66*
Pearson's correlation coefficient, DXM activity vs hepatic CYP2E1 abundance ([2]; level 6 (DXM 100 µM)): 0.54
Pearson's correlation coefficient, DXM activity vs hepatic CYP3A29 abundance ([2]; level 6 (DXM 100 µM)): 0.59
Pearson's correlation coefficient, DXM activity vs hepatic CYP3A46 abundance ([2]; level 6 (DXM 100 µM)): 0.74*
Correlation (r) of CYP2D25 with DXM-O-demethylation ([2]; range over concentration levels): 0.55–0.66
Km at 10 min ([3]; Duodenum Km, duodenal microsomes, pool of 16 pigs, n=3, mean (SD)): 31.5 µM

CCOc1ccc(NC(C)=O)cc1 [PH, phenacetin]
log_Km, male (CYP1A [4]): 1,2876
log_Km, female (CYP1A [5]): 1,1345

O=c1ccc2ccccc2o1 [CM, coumarin]
CM-hydroxylase activity in the intestine [6]: No CM-hydroxylase activity could be detected
Enzyme involvement: High affinity (porcine CYP450): CYP2A19
Pearson's correlation coefficient, CM activity vs hepatic CYP2A19 abundance ([2]; level 3 (CM 2.00 µM)): 0.62
Pearson's correlation coefficient, CM activity vs hepatic CYP2A19 abundance ([2]; level 4 (CM 5.00 µM)): 0.66*
Pearson's correlation coefficient, CM activity vs hepatic CYP2A19 abundance ([2]; level 5 (CM 20.0 µM)): 0.67*
Pearson's correlation coefficient, CM activity vs hepatic CYP2A19 abundance ([2]; level 6 (CM 100 µM)): 0.66*

B1: CYP2D25 (protein, UniProt O46658 2-500, looked up)
Vitamin D(3) 25-hydroxylase: GLLTGDLLGILALAMVIFLLLVDLMHRRSRWAPRYPPGPMPLPGLGNLLQVNFQDPRLSFIQLRRRFGDVFSLQQIWRPVVVLNGLAAVREALVSHSHETSDRPPVFILEHLGYGPRSEGVILARYGKAWREQRRFSVSTLRNFGLGKKSLEEWVTQEASCLCAAFADQAGRPFSPNNLLNKAVSNVIASLTFARRFEYNDPRMLKLLDLVLEGLKEEVGLMRQVLEAMPVLRHIPGLCAKLFPRQKAFLVMIDELITEHKMTRDLAQPPRDLTDAFLDEMKEAKGNPESSFNDENLRLVVAHLFSAGMITTSTTLAWALLLMILHPDVQRRVQQEIDEVIGHVRQPEIKDQALMPFTLAVLHEVQRFGDIVPLGVAHMTSCDIEVQGFLIPKGTTLITNLTSVLKDETVWKKPFRFYPEHFLDAQGRFTKQEAFMPFSAGRRSCLGEPLARMELFLFFTTLLQAFSFSVPTGQPCPSDHGVFAFLLFPSPYQLCAVPR
log abundance, Mean Difference (t-test for Equality of Means) (hepatic CYP450): ,05407
log abundance, Sig. (2-tailed) (hepatic CYP450): ,497

B2: CYP3A29 (protein, UniProt P79401 1-503, looked up)
Cytochrome P450 3A29: MDLIPGFSTETWVLLATSLVLLYLYGTYSHGLFKKLGIPGPRPLPYFGNILGYRKGVDHFDKKCFQQYGKMWGVYDGRQPLLAVTDPNMIKSVLVKECYSVFTNRRSFGPLGAMRNALSLAEDEEWKRIRTLLSPTFTSGKLKEMFPIISHYGDLLVSNLRKEAEKGKPVTMKDIFGAYSMDVITSTAFGVNIDSLNNPQDPFVENSKKLLKFSFFDPFLLSLIFFPFLTPIFEVLNITLFPKSSVNFFTKSVKRMKESRLTDQQKRRVDLLQLMINSQNSKEMDPHKSLSNEELVAQGIIFIFAGYETTSSALSLLAYELATHPDVQQKLQEEIEATFPNKAPPTYDALAQMEYLDMVVNETLRLYPIAARLERACKKDVEIHGVFVPKGTVVVVPVFVLHRDPDLWPEPEEFRPERFSKKHKDTINPYTYLPFGTGPRNCIGMRFALMNMKLALVRVLQNFSFKPCKETQIPLKLTTQGLTQPEKPVVLKILPRDGTVSGA
Amount (hepatic CYP450): 4.74 pmol/mg protein
